We go through twelve compounds from patent publication US4479941A, “Renin inhibitory peptides having PHE^13 delection” (Merck & Co., Inc., priority 1982, dated 1984).

Square brackets hold non-standard residues; d marks the D form. Peptide text beside a SMILES is read from it. * marks the point of attachment. Sta = CC(C)C[C@H](N)[C@@H](O)CC(=O)O; X2 = c1ccc(CC(N*)c2ccccc2)cc1; NH(CH2)3Ph = c1ccc(CCCN*)cc1; NHPhenethyl = c1ccc(CCN*)cc1; X5 = c1ccc(CN2CCC(N*)CC2)cc1; Isobutyryl = CC(C)C(=O)*; Boc = CC(C)(C)OC(=O)*; NHBn = c1ccc(CN*)cc1; X3 = OCCN(CCO)CCCN*

One assay concerns the target T1, human kidney renin (Homo sapiens, UniProt P00797).
T1 construct: human kidney renin purified as described in Bangham; from tissue; host or cells: human kidney
T1 sequence (P00797 67-406): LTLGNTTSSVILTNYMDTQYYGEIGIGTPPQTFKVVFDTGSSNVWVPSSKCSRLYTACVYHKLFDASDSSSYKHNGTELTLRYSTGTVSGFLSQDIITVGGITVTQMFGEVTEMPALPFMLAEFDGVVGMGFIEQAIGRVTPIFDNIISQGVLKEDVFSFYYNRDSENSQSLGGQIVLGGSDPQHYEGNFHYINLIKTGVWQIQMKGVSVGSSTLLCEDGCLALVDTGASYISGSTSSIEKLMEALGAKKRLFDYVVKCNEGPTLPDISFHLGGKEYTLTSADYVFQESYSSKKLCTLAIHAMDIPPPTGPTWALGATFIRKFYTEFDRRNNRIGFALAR
In words: Human renin inhibition. The following applies: purified human kidney renin; read-out: KI (dissociation constant of the inhibited enzyme-inhibitor complex). The assay is classed as biochemical. As to the method:
An assay was carried out in order to determine the inhibitory potency of the peptides of the present invention. The assay measured the inhibition of human kidney renin purified as described in Bangham, D. R., Robertson, I., Robinson, J. I. S., Robinson, C. J., and Tree, M., Clinical Science and Molecular Medicine, 48 (Supp. 2): 136s-159s (1975), and further purified by affinity chromatography on pepstatin-aminohexyl-Sepharase as described in Poe, M., Wu., J. K., Florance, J. R., Radkey, J. A., Bennett, C. D., and Hoagsteen, K., J. Biol. Chem. (1982, in press). The assay was also in accordance with Poe et al. cited above. Results are expressed as KI values, which refer to the dissociation constant of the inhibited enzyme-inhibitor complex. This KI value was obtained as described above.
For `CC(C)C[C@H](NC(=O)C[C@H](O)[C@H](CC(C)C)NC(=O)[C@H](Cc1c[nH]cn1)NC(=O)[C@H](Cc1ccccc1)NC(=O)[C@@H]1CCCN1C(=O)[C@H](Cc1c[nH]cn1)NC(=O)C(C)C)C(=O)NCc1ccccc1` [N-Isobutyryl-L-histidyl-L-prolyl-L-phenylalanyl-L-histidyl-(3S,4S)-statyl-L-leucyl-benzylamide] (Isobutyryl-HPFH[Sta]L-NHBn), the Ki turned out to be 12 nM.

As to `CC(C)C[C@H](NC(=O)C[C@H](O)[C@H](CC(C)C)NC(=O)[C@H](Cc1c[nH]cn1)NC(=O)[C@H](Cc1ccccc1)NC(=O)OC(C)(C)C)C(=O)NCCCN(CCO)CCO` [BOC--Phe-His-Sta-Leu-[N-(3-amidopropyl)diethanolamine]] (Boc-FH[Sta]L-X3), the Ki turned out to be 52 nM.

For the compound `CC(C)C[C@H](NC(=O)C[C@H](O)[C@H](CC(C)C)NC(=O)[C@H](Cc1c[nH]cn1)NC(=O)[C@H](Cc1ccccc1)NC(=O)OC(C)(C)C)C(=O)NC1CCN(Cc2ccccc2)CC1` [BOC--Phe-His-Sta-Leu-(4-amido-1-benzylpiperidine)] (Boc-FH[Sta]L-X5), the Ki worked out at 0.06 nM.

Another assay deals with aspartyl proteases such as pepsin, cathepsin D, and renin.
Test: not given
The following applies: other acid proteases; cited from earlier work.
On to pepstatin, for which the “inhibition of aspartyl proteases (selectivity)” value is “inhibition of a variety of other acid proteases in addition to renin”.

A further assay deals with hog renin.
Test: not given
Conditions: after injection of hog renin into nephrectomized rats (Gross et al. 1971); cited from earlier work.
For the compound pepstatin, the “reduction of blood pressure in vivo” value is recorded as “reduce blood pressure in vivo”.

The target of another assay is hog kidney renin (Sus scrofa, UniProt A0A287APG1). In words: Hog renin inhibition. The assay is classed as biochemical. Conditions: pH 7.3, read-out: I50 (concentration of peptide inhibitor necessary to produce 50% inhibition of renin activity). The procedure: An assay was carried out in order to determine the inhibitory potency of the peptides of the present invention.
Chain of hog kidney renin (A0A287APG1 67-407): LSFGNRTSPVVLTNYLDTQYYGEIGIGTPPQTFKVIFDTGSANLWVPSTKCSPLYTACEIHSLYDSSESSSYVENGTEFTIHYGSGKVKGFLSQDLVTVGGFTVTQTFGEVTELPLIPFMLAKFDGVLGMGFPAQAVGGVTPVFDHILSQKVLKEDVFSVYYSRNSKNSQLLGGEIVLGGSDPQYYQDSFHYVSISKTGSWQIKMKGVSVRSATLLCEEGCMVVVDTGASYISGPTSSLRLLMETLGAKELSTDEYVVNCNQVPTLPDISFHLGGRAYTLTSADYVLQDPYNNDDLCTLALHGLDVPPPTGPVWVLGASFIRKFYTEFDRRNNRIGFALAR
As for `CC(C)C[C@H](NC(=O)C[C@H](O)[C@H](CC(C)C)NC(=O)[C@H](Cc1c[nH]cn1)NC(=O)[C@H](Cc1ccccc1)NC(=O)OC(C)(C)C)C(=O)NCc1ccccc1` [BOC--Phe--His--Sta--Leu--benzylamide, BOC--Phe-His-Sta-Leu-benzylamide] (Boc-FH[Sta]L-NHBn), the IC50 came to 11 nM.

For the compound `CC(C)C[C@H](NC(=O)C[C@H](O)[C@H](CC(C)C)NC(=O)[C@H](Cc1c[nH]cn1)NC(=O)[C@H](Cc1ccccc1)NC(=O)[C@@H]1CCCN1C(=O)[C@H](Cc1c[nH]cn1)NC(=O)C(C)C)C(=O)NCc1ccccc1` [N-Isobutyryl-L-histidyl-L-prolyl-L-phenylalanyl-L-histidyl-(3S,4S)-statyl-L-leucyl-benzylamide] (Isobutyryl-HPFH[Sta]L-NHBn), the IC50 was 13 nM.

As to `CC(C)C[C@H](NC(=O)C[C@H](O)[C@H](CC(C)C)NC(=O)[C@H](Cc1c[nH]cn1)NC(=O)[C@H](Cc1ccccc1)NC(=O)[C@@H]1CCCN1C(=O)[C@H](Cc1c[nH]cn1)NC(=O)C(C)C)C(=O)NC(Cc1ccccc1)c1ccccc1` (stereo partly drawn) [IBU--His-Pro-Phe-His-Sta-Leu-1,2-diphenylethylamide] (Isobutyryl-HPFH[Sta]L-X2), the IC50 stood at 5.6 nM.

In the case of `CC(C)C[C@H](NC(=O)C[C@H](O)[C@H](CC(C)C)NC(=O)[C@H](Cc1c[nH]cn1)NC(=O)[C@H](Cc1ccccc1)NC(=O)OC(C)(C)C)C(=O)NC(C)c1cccc2ccccc12` (single isomer, unassigned) [BOC--Phe-His-Sta-Leu-(+)-α-naphthylethylamide], the IC50 is 11 nM.

Turning to `CC(C)C[C@H](NC(=O)C[C@H](O)[C@H](CC(C)C)NC(=O)[C@H](Cc1c[nH]cn1)NC(=O)[C@H](Cc1ccccc1)NC(=O)OC(C)(C)C)C(=O)N[C@@H](CC(C)C)[C@@H](O)CC(=O)O` [BOC--Phe--His--Sta--Leu--Sta, BOC--Phe-His-Sta-Leu-Sta] (Boc-FH[Sta]L[Sta]-OH), the IC50 is 36 nM.

On to `CC(=O)N[C@@H](Cc1ccccc1)C(=O)N[C@@H](Cc1c[nH]cn1)C(=O)N[C@@H](Cc1ccccc1)[C@@H](O)CC(=O)N[C@@H](CC(C)C)C(=O)NCc1ccccc1` [Acetyl--Phe-His-AHPPA-Leu-benzylamide], for which the IC50 was 3.4 nM.

Regarding `CC(C)C[C@H](NC(=O)C[C@H](O)[C@H](CC(C)C)NC(=O)[C@H](Cc1c[nH]cn1)NC(=O)[C@H](Cc1ccccc1)NC(=O)[C@@H]1CCCN1C(=O)[C@H](Cc1c[nH]cn1)NC(=O)C(C)C)C(=O)NCCc1ccccc1` [IBU--His-Pro-Phe-His-Sta-Leu-2-phenylethylamide] (Isobutyryl-HPFH[Sta]L-NHPhenethyl), the IC50 is 30 nM.

Consider `CC(C)C[C@H](NC(=O)C[C@H](O)[C@H](Cc1ccccc1)NC(=O)[C@H](Cc1c[nH]cn1)NC(=O)[C@H](Cc1ccccc1)NC(=O)OC(C)(C)C)C(=O)NCc1ccccc1` [BOC--Phe--His--AHPPA--Leu--benzylamide, BOC--Phe-His-AHPPA^4 -Lleu-benzylamide], for which the IC50 is 1.4 nM.

On to `CC(C)C[C@H](NC(=O)C[C@H](O)[C@H](CC(C)C)NC(=O)[C@H](Cc1c[nH]cn1)NC(=O)[C@H](Cc1ccccc1)NC(=O)[C@@H]1CCCN1C(=O)[C@H](Cc1c[nH]cn1)NC(=O)C(C)C)C(=O)NCCCc1ccccc1` [IBU--His-Pro-Phe-His-Sta-Leu-3-phenylpropylamide] (Isobutyryl-HPFH[Sta]L-{NH(CH2)3Ph}), for which the IC50 came to 19 nM.

For orientation: Ki means a measure of affinity in units of concentration, obtained from inhibition or displacement.
